Results published in US9233981B1, “Substituted phenyl hexahydropyrano[3,4-d][1,3]thiazin-2-amine compounds” (Pfizer Inc., priority 2013, dated 2016).

What was measured:
[1] = test system: sAPPβ levels in H4 human neuroglioma cells over-expressing the wild-type human APP695; assay: Whole Cell Assay (In Vitro sAPPβ Assay), TMB-ELISA; format: cell-based; details: 18 hours, geometric mean of 2-3 determinations, Examples 32-34 (footnote b) single determination
Method: Whole Cell Assay (In Vitro sAPPpβ Assay):
H4 human neuroglioma cells over-expressing the wild-type human APP695 are treated for 18 hours with compound in a final concentration 1% DMSO. sAPPβ levels are measured using TMB-ELISA with capture APP N-terminal antibody (Affinity BioReagents, OMA1-03132), wild-type sAPPβ specific reporter p192 (Elan), and tertiary anti rabbit-HRP (GE Healthcare).

[2] = biological target: BACE1 enzyme (Homo sapiens (Human), UniProt P56817); assay: BACE1 Cell-Free Assay (fluorescence polarization, cleavage of synthetic APP substrate); format: biochemical; details: geometric mean of 2-3 determinations; Examples 32-34 (footnote b) single determination
Sequence of BACE1 enzyme (P56817 46-457): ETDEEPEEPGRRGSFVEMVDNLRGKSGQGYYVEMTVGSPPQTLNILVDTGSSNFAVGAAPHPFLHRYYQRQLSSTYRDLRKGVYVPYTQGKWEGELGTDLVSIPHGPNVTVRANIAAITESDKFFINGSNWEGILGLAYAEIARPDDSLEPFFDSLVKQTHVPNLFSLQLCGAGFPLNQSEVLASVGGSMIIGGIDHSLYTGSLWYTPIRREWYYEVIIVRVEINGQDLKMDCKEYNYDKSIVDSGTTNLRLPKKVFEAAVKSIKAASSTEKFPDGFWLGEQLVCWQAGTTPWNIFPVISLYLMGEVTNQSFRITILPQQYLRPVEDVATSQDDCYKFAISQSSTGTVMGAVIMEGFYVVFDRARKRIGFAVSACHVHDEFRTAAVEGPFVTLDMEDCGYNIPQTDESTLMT
Excerpt: Beta-secretase (BACE) is one of the enzymes involved in the generation of the amyloid beta peptide found in the amyloid plaques of Alzheimer's Disease patients. This assay measures the inhibition of the beta-secretase enzyme as it cleaves a non-native peptide.
A synthetic APP substrate that can be cleaved by beta-secretase having N-terminal biotin and made fluorescent by the covalent attachment of Oregon Green at the Cys residue is used to assay beta-secretase activity in the presence or absence of the inhibitory compounds. The substrate is Biotin-GLTNIKTEEISEISY^EVEFR-C[Oregon Green]KK-OH. The BACE1 enzyme is affinity purified material from conditioned media of CHO-K1 cells that have been transfected with a soluble BACE construct (BACE1deltaTM96His). Compounds are incubated in a log dose response curve from a top concentration of 100 μM with BACE1 enzyme and the biotinylated fluorescent peptide in 384-well black plates (Thermo Scientific #4318). BACE1 is at a final concentration of 0.1 nM with a final concentration of peptide substrate of 150 nM in a reaction volume of 30 μL assay buffer [100 mM sodium acetate, pH 4.5 (brought to pH with acetic acid), and 0.001% Tween-20]. Plates are covered and incubated for 3 hours at 37° C. The reaction is stopped with the addition of 30 μL of 1.5 μM Streptavidin (Pierce, #21125). After a 10 minute incubation at room temperature, plates are read on a PerkinElmer EnVision for fluorescence polarization (Ex485 nm/Em530 nm). The activity of the beta-secretase enzyme is detected by changes in the fluorescence polarization that occur when the substrate is cleaved by the enzyme.

Compound	IC50 [1] [nM]	IC50 [2] [nM]
COc1ccc(F)c([C@H]2C[C@H]3CSC(N)=N[C@@]3(c3ccc(F)cc3F)CO2)c1 [Example 22, (4aR,6R,8aS)-8a-(2,4-difluorophenyl)-6-(2-fluoro-5-methoxyphenyl)-4,4a,5,6,8,8a-hexahydropyrano[3,4-d][1,3]thiazin-2-amine]	0.248	397
NC1=N[C@@]2(c3ccc(F)cc3F)CO[C@@H](c3ccc4c(c3)CCO4)C[C@H]2CS1 [Example 26, (4aR,6R,8aS)-8a-(2,4-difluorophenyl)-6-(2,3-dihydro-1-benzofuran-5-yl)-4,4a,5,6,8,8a-hexahydropyrano[3,4-d][1,3]thiazin-2-amine]	0.005	6
NC1=N[C@@]2(c3ccc(F)cc3F)CO[C@@H](c3ccc(OC(F)(F)F)cc3)C[C@H]2CS1 [Example 15, (4aR,6R,8aS)-8a-(2,4-difluorophenyl)-6-[4-(trifluoromethoxy)phenyl]-4,4a,5,6,8,8a-hexahydropyrano[3,4-d][1,3]thiazin-2-amine]	0.142	21
COC(C)c1ccc([C@H]2C[C@H]3CSC(N)=N[C@@]3(c3ccc(F)cc3F)CO2)cc1 (stereo partly drawn) [Example 28, (4aR,6R,8aS)-8a-(2,4-difluorophenyl)-6-[4-(1-methoxyethyl)phenyl]-4,4a,5,6,8,8a-hexahydropyrano[3,4-d][1,3]thiazin-2-amine]	0.055	210
Cc1cc(F)cc([C@H]2C[C@H]3CSC(N)=N[C@@]3(c3ccc(F)cc3F)CO2)c1 [Example 10, (4aR,6R,8aS)-8a-(2,4-difluorophenyl)-6-(3-fluoro-5-methylphenyl)-4,4a,5,6,8,8a-hexahydropyrano[3,4-d][1,3]thiazin-2-amine]	0.038	16
COc1ccc([C@H]2C[C@H]3CSC(N)=N[C@@]3(c3ccc(F)cc3F)CO2)cc1F [Example 19, (4aR,6R,8aS)-8a-(2,4-difluorophenyl)-6-(3-fluoro-4-methoxyphenyl)-4,4a,5,6,8,8a-hexahydropyrano[3,4-d][1,3]thiazin-2-amine]	0.023	44
Cc1cc([C@H]2C[C@H]3CSC(N)=N[C@@]3(c3ccc(F)cc3F)CO2)ccc1F [Example 8, (4aR,6R,8aS)-8a-(2,4-difluorophenyl)-6-(4-fluoro-3-methylphenyl)-4,4a,5,6,8,8a-hexahydropyrano[3,4-d][1,3]thiazin-2-amine]	0.008	6
Cc1ccc([C@H]2C[C@H]3CSC(N)=N[C@@]3(c3ccc(F)cc3F)CO2)cc1F [Example 9, (4aR,6R,8aS)-8a-(2,4-difluorophenyl)-6-(3-fluoro-4-methylphenyl)-4,4a,5,6,8,8a-hexahydropyrano[3,4-d][1,3]thiazin-2-amine]	0.012	13
NC1=N[C@@]2(c3ccc(F)cc3F)CO[C@@H](c3cccc(C(F)(F)F)c3)C[C@H]2CS1 [Example 13, (4aR,6R,8aS)-8a-(2,4-difluorophenyl)-6-[3-(trifluoromethyl)phenyl]-4,4a,5,6,8,8a-hexahydropyrano[3,4-d][1,3]thiazin-2-amine]	0.222	97
NC1=N[C@@]2(c3ccc(F)cc3F)CO[C@@H](c3ccc4c(c3)OCO4)C[C@H]2CS1 [Example 27, (4aR,6R,8aS)-6-(1,3-benzodioxol-5-yl)-8a-(2,4-difluorophenyl)-4,4a, 5,6,8,8a-hexahydropyrano[3,4-d][1,3]thiazin-2-amine]	0.008	19
COc1ccc([C@H]2C[C@H]3CSC(N)=N[C@@]3(c3ccc(F)cc3F)CO2)c(F)c1 [Example 20, (4aR,6R,8aS)-8a-(2,4-difluorophenyl)-6-(2-fluoro-4-methoxyphenyl)-4,4a,5,6,8,8a-hexahydropyrano[3,4-d][1,3]thiazin-2-amine]	0.039	83
NC1=N[C@@]2(c3ccc(F)cc3F)CO[C@@H](c3ccc(F)cc3F)C[C@H]2CS1 [Example 4, (4aR,6R,8aS)-6,8a-bis(2,4-difluorophenyl)-4,4a,5,6,8,8a-hexahydropyrano[3,4-d][1,3]thiazin-2-amine]	0.025	39
COc1cc([C@H]2C[C@H]3CSC(N)=N[C@@]3(c3ccc(F)cc3F)CO2)ccc1F [Example 18, (4aR,6R,8aS)-8a-(2,4-difluorophenyl)-6-(4-fluoro-3-methoxyphenyl)-4,4a,5,6,8,8a-hexahydropyrano[3,4-d][1,3]thiazin-2-amine]	0.095	214
Cc1ccccc1[C@H]1C[C@H]2CSC(N)=N[C@@]2(c2ccc(F)cc2F)CO1 [Example 7, (4aR,6R,8aS)-8a-(2,4-difluorophenyl)-6-(2-methylphenyl)-4,4a,5,6,8,8a-hexahydropyrano[3,4-d][1,3]thiazin-2-amine]	0.665	970
NC1=N[C@@]2(c3ccc(F)cc3F)CO[C@@H](c3ccccc3F)C[C@H]2CS1 [Example 3, (4aR,6R,8aS)-8a-(2,4-difluorophenyl)-6-(2-fluorophenyl)-4,4a,5,6,8,8a-hexahydropyrano[3,4-d][1,3]thiazin-2-amine]	0.055	86
N#Cc1cccc([C@H]2C[C@H]3CSC(N)=N[C@@]3(c3ccc(F)cc3F)CO2)c1 [Example 29, 3-[(4aR,6R,8aS)-2-amino-8a-(2,4-difluorophenyl)-4,4a,5,6,8,8a-hexahydropyrano[3,4-d][1,3]thiazin-6-yl]benzonitrile]	0.012	99
COCc1cccc([C@H]2C[C@H]3CSC(N)=N[C@@]3(c3ccc(F)cc3F)CO2)c1 [Example 24, (4aR,6R,8aS)-8a-(2,4-difluorophenyl)-6-[3-(methoxymethyl)phenyl]-4,4a,5,6,8,8a-hexahydropyrano[3,4-d][1,3]thiazin-2-amine]	0.071	161
COc1cc(F)cc([C@H]2C[C@H]3CSC(N)=N[C@@]3(c3ccc(F)cc3F)CO2)c1 [Example 21, (4aR,6R,8aS)-8a-(2,4-difluorophenyl)-6-(3-fluoro-5-methoxyphenyl)-4,4a,5,6,8,8a-hexahydropyrano[3,4-d][1,3]thiazin-2-amine]	0.216	335

Next, values leading:

IC50 [1] [nM]	IC50 [2] [nM]	Compound
0.01	22	COCc1ccc([C@H]2C[C@H]3CSC(N)=N[C@@]3(c3ccc(F)cc3F)CO2)cc1 [Example 25, (4aR,6R,8aS)-8a-(2,4-difluorophenyl)-6-[4-(methoxymethyl)phenyl]-4,4a,5,6,8,8a-hexahydropyrano[3,4-d][1,3]thiazin-2-amine]
0.018	29	COc1ccc([C@H]2C[C@H]3CSC(N)=N[C@@]3(c3ccc(F)cc3F)CO2)cc1 [Example 16, (4aR,6R,8aS)-8a-(2,4-difluorophenyl)-6-(4-methoxyphenyl)-4,4a,5,6,8,8a-hexahydropyrano[3,4-d][1,3]thiazin-2-amine]
0.004	15	C[C@H]1SC(N)=N[C@@]2(c3ccc(F)cc3F)CO[C@@H](c3ccc(F)cc3)C[C@@H]12 [Example 32, (4R,4aR,6R,8aS)-8a-(2,4-Difluorophenyl)-6-(4-fluorophenyl)-4-methyl-4,4a,5,6,8,8a-hexahydropyrano[3,4-d][1,3]thiazin-2-amine]
0.005	24	Cc1ccc([C@H]2C[C@H]3CSC(N)=N[C@@]3(c3ccc(F)cc3F)CO2)cc1 [Example 6, (4aR,6R,8aS)-8a-(2,4-difluorophenyl)-6-(4-methylphenyl)-4,4a,5,6,8,8a-hexahydropyrano[3,4-d][1,3]thiazin-2-amine]
0.021	11	CCOc1ccc([C@H]2C[C@H]3CSC(N)=N[C@@]3(c3ccc(F)cc3F)CO2)cc1 [Example 23, (4aR,6R,8aS)-8a-(2,4-difluorophenyl)-6-(4-ethoxyphenyl)-4,4a,5,6,8,8a-hexahydropyrano[3,4-d][1,3]thiazin-2-amine]
0.016	15	NC1=N[C@@]2(c3ccc(F)cc3F)CO[C@@H](c3ccc(Cl)cc3)C[C@H]2CS1 [Example 12, (4aR,6R,8aS)-6-(4-chlorophenyl)-8a-(2,4-difluorophenyl)-4,4a,5,6,8,8a-hexahydropyrano[3,4-d][1,3]thiazin-2-amine]
0.006	14	NC1=N[C@@]2(c3ccc(F)cc3F)CO[C@@H](c3ccc(F)cc3)C[C@H]2CS1 [Example 1, (4aR,6R,8aS)-8a-(2,4-difluorophenyl)-6-(4-fluorophenyl)-4,4a,5,6,8,8a-hexahydropyrano[3,4-d][1,3]thiazin-2-amine]
0.176	–	NC1=N[C@@]2(c3ccc(F)cc3F)CO[C@@H](c3ccc(C(F)(F)F)cc3)C[C@H]2CS1 [Example 14, (4aR,6R,8aS)-8a-(2,4-difluorophenyl)-6-[4-(trifluoromethyl)phenyl]-4,4a,5,6,8,8a-hexahydropyrano[3,4-d][1,3]thiazin-2-amine]
